Legend:
Assay in all cases: in vitro antibacterial activity, agar dilution MIC
Format in all cases: cell-based
[1] = tested on: Mycobacterium smegmatis ATCC 114; design: unit not given here; settings: organism code UU, BHI agar, 35-37 °C, 20 to 24 hours
Description: (§1) Representative compounds of the present invention were assayed in vitro for antibacterial activity as follows: Twelve petri dishes containing successive aqueous dilutions of the test compound mixed with 10 mL of sterilized Brain Heart Infusion (BHI) agar (Difco 0418-01-5) were prepared. Each plate was inoculated with 1:100 (or 1:10 for slow-growing strains, such as Micrococcus and Streptococcus) dilutions of up to 32 different microorganisms, using a Steers replicator block. […] In addition, a control plate, using BHI agar containing no test compound, was prepared and incubated at the beginning and end of each test
(§2) An additional plate containing a compound having known susceptibility patterns for the organisms being tested and belonging to the same antibiotic class as the test compound was also prepared and incubated as a further control, as well as to provide test-to-test comparability.
(§3) After incubation, each plate was visually inspected. The minimum inhibitory concentration (MIC) was defined as the lowest concentration of drug yielding no growth, a slight haze, or sparsely isolated colonies on the inoculum spot as compared to the growth control.

[2] = tested on: Staphylococcus aureus A5177; design: unit not given here; settings: organism code BB, BHI agar, 35-37 °C, 20 to 24 hours
Description: as §1, §2, §3

[3] = tested on: Streptococcus bovis A-5169; design: unit not given here; settings: organism code JJ, BHI agar, 35-37 °C, 20 to 24 hours
Description: (§4) Erythromycin A was used for this purpose.
(§5) After incubation, each plate was visually inspected.

[4] = tested on: Streptococcus Pheumoniae ATCC6303; design: unit not given here; settings: organism code XX, BHI agar, 35-37 °C, 20 to 24 hours
Description: as §4, §5

[5] = tested on: Streptococcus agalactiae CMX 508; design: unit not given here; settings: organism code KK, BHI agar, 35-37 °C, 20 to 24 hours
Description: as §4, §5

[6] = tested on: Staphylococcus aureus ATCC 6538P; design: unit not given here; settings: organism code AA, BHI agar, 35-37 °C, 20 to 24 hours
Description: as §4, §5

[7] = tested on: Streptococcus pyogenes EES61; design: unit not given here; settings: organism code LL, BHI agar, 35-37 °C, 20 to 24 hours
Description: as §4, §5

[8] = tested on: Streptococcus Pheumoniae 5979; settings: organism code ZZ, BHI agar, 35-37 °C, 20 to 24 hours
Description: as §1, §2, §3

Candida albicans CCH 442 = settings: organism code TT, BHI agar, 35-37 °C, 20 to 24 hours
Description: as §1, §2, §3

[9] = tested on: Staphylococcus aureus 1775; settings: organism code GG, BHI agar, 35-37 °C, 20 to 24 hours
Description: as §1, §2, §3

[10] = tested on: Streptococcus pyogenes 930; settings: organism code MM, BHI agar, 35-37 °C, 20 to 24 hours
Description: as §1, §2, §3

[11] = tested on: Staphylococcus aureus A-5278; settings: organism code CC, BHI agar, 35-37 °C, 20 to 24 hours
Description: as §1, §2, §3

[12] = tested on: Streptococcus pyogenes PIU 2548; settings: organism code NN, BHI agar, 35-37 °C, 20 to 24 hours
Description: as §1, §2, §3

Escherichia coli DC-2 = settings: organism code SS, BHI agar, 35-37 °C, 20 to 24 hours
Description: as §1, §2, §3

[13] = tested on: Staphylococcus aureus CMX 553; settings: organism code FF, BHI agar, 35-37 °C, 20 to 24 hours
Description: as §4, §5

[14] = tested on: Haemophilis Influenzae DILL AMP R; settings: organism code WW, BHI agar, 35-37 °C, 20 to 24 hours
Description: as §4, §5

Escherichia coli JUHL = settings: organism code QQ, BHI agar, 35-37 °C, 20 to 24 hours
Description: as §4, §5

[15] = tested on: Micrococcus luteus ATCC 9341; settings: organism code OO, BHI agar, 35-37 °C, 20 to 24 hours
Description: as §4, §5

[16] = tested on: Streptococcus Pheumoniae 5649; settings: organism code ZZA, BHI agar, 35-37 °C, 20 to 24 hours
Description: as §4, §5

[17] = tested on: Nocardia Asteroides ATCC9970; settings: organism code VV, BHI agar, 35-37 °C, 20 to 24 hours
Description: as §4, §5

Escherichia coli SS = settings: organism code RR, BHI agar, 35-37 °C, 20 to 24 hours
Description: as §4, §5

[18] = tested on: Staphylococcus aureus CMX 642A; settings: organism code DD, BHI agar, 35-37 °C, 20 to 24 hours
Description: as §4, §5

[19] = tested on: Enterococcus faecium ATCC 8043; settings: organism code II, BHI agar, 35-37 °C, 20 to 24 hours
Description: as §4, §5

[20] = tested on: Staphylococcus epidermidis 3519; settings: organism code HH, BHI agar, 35-37 °C, 20 to 24 hours
Description: as §4, §5

[21] = tested on: Staphylococcus aureus NCTC10649M; settings: organism code EE, BHI agar, 35-37 °C, 20 to 24 hours
Description: as §4, §5

[22] = tested on: Micrococcus luteus ATCC 4698; settings: organism code PP, BHI agar, 35-37 °C, 20 to 24 hours
Description: as §4, §5

[23] = tested on: Streptococcus Pheumoniae GYR 1171; settings: organism code YY, BHI agar, 35-37 °C, 20 to 24 hours
Description: as §4, §5

SMILES	minimum inhibitory concentration (MIC) [1]	minimum inhibitory concentration (MIC) [2]	minimum inhibitory concentration (MIC) [3]	minimum inhibitory concentration (MIC) [4]	minimum inhibitory concentration (MIC) [5]	minimum inhibitory concentration (MIC) [6]	minimum inhibitory concentration (MIC) [7]	minimum inhibitory concentration (MIC) [8]	minimum inhibitory concentration (MIC) (Candida albicans CCH 442)	minimum inhibitory concentration (MIC) [9]	minimum inhibitory concentration (MIC) [10]	minimum inhibitory concentration (MIC) [11]	minimum inhibitory concentration (MIC) [12]	minimum inhibitory concentration (MIC) (Escherichia coli DC-2)	minimum inhibitory concentration (MIC) [13]	minimum inhibitory concentration (MIC) [14]	minimum inhibitory concentration (MIC) (Escherichia coli JUHL)	minimum inhibitory concentration (MIC) [15]	minimum inhibitory concentration (MIC) [16]	minimum inhibitory concentration (MIC) [17]	other results
CC[C@H]1OC(=O)[C@H](C)[C@@H](O[C@H]2C[C@@](C)(OC)[C@@H](O)[C@H](C)O2)[C@H](C)[C@@H](O[C@@H]2O[C@H](C)C[C@H](N(C)C)[C@H]2O)[C@@]2(C)C[C@@H](C)C(=O)[C@H](C)[C@H]3N(CCC=CCO2)C(=O)O[C@]13C [Example 17, Compound of Formula (I), R^p is H, m is 2, A is absent, B is absent, D is absen, E is-(CH2)r-CH=CH-, r is 0, n is 1]	0.2	6.2	0.01	0.015	0.01	0.1	0.02	>128	>100	>100	>100	>100	25	>100	0.1	8	>100	0.02	8	0.02	minimum inhibitory concentration (MIC) (Escherichia coli SS): 0.78; minimum inhibitory concentration (MIC) [18]: 0.2; minimum inhibitory concentration (MIC) [19]: 0.05; minimum inhibitory concentration (MIC) [20]: 0.2; minimum inhibitory concentration (MIC) [21]: 0.2; minimum inhibitory concentration (MIC) [22]: 0.1; minimum inhibitory concentration (MIC) [23]: 0.015
CC[C@H]1OC(=O)[C@H](C)C(=O)[C@H](C)[C@@H](O[C@@H]2O[C@H](C)C[C@H](N(C)C)[C@H]2O)[C@@]2(C)C[C@@H](C)C(=O)[C@H](C)[C@H]3N(CCC=CCO2)C(=O)O[C@]13C [Example 18, Compound of Formula (II), R^p is H, m is 2, A is absent, B is absent, D is absent, E is-(CH2)r-CH=CH-, r is 0, n is 1]	12.5	0.78	0.2	1	0.2	0.78	0.2	>128	>100	>100	>100	>100	1.56	>100	0.78	128	>100	0.39	2	0.78	minimum inhibitory concentration (MIC) (Escherichia coli SS): 1.56; minimum inhibitory concentration (MIC) [18]: 0.78; minimum inhibitory concentration (MIC) [19]: 0.39; minimum inhibitory concentration (MIC) [20]: 1.56; minimum inhibitory concentration (MIC) [21]: 0.78; minimum inhibitory concentration (MIC) [22]: 0.78; minimum inhibitory concentration (MIC) [23]: 0.5
CC[C@H]1OC(=O)[C@H](C)[C@@H](O[C@H]2C[C@@](C)(OC)[C@@H](O)[C@H](C)O2)[C@H](C)[C@@H](O[C@@H]2O[C@H](C)C[C@H](N(C)C)[C@H]2O)[C@@]2(C)C[C@@H](C)C(=O)[C@H](C)[C@H]3N(CC(O)CC=CCO2)C(=O)O[C@]13C (stereo partly drawn) [Example 19, Compound of Formula (I), R^p is H, m is 1, A is absent, B is -CHOH-(CH2)q-, q is 1, D is absent, E is -(CH2)r-CH=CH-, r is 0, n is 1]	0.39	3.1	0.02	0.03	0.05	0.39	0.05	>128	>100	>100	>100	>100	12.5	>100	0.78	8	25	0.05	16	0.05	minimum inhibitory concentration (MIC) (Escherichia coli SS): 0.78; minimum inhibitory concentration (MIC) [18]: 0.78; minimum inhibitory concentration (MIC) [19]: 0.1; minimum inhibitory concentration (MIC) [20]: 0.78; minimum inhibitory concentration (MIC) [21]: 0.78; minimum inhibitory concentration (MIC) [22]: 0.78; minimum inhibitory concentration (MIC) [23]: 0.03

Source: patent EP1027361B1, “6,11-BRIDGED ERYTHROMYCIN DERIVATIVES” (Abbott Laboratories, priority 1997, dated 1999)
